According to publication PMC6238005, “Sigma-2 Receptor/TMEM97 and PGRMC-1 Increase the Rate of Internalization of LDL by LDL Receptor through the Formation of a Ternary Complex” (Scientific Reports, 2018):
Like-named read-outs stand apart in the source and are kept apart here.

What was measured:
[1] = biological target: T1, σ2R (Homo sapiens, UniProt Q5BJF2); details: cited from earlier work; for Kd: no reference given
T1 construct: cell membranes were incubated with [^3H]DTG; endogenous in cells; host or cells: HeLa control clone (non-specific CRISPR/Cas9 plasmid plus lentiCas9-Blast), membrane preparation

[2] = test system: HeLa cells; experiment: Radiolabeled LDL uptake assay; type: cell-based; details: control HeLa cells, ligands 1 nM - 500 nM
Description: Radiolabeled LDL was prepared by incubating human LDL (50 μg/mL) (LP2, Millipore) with [^3H]cholesterol (final concentration 3 μCi/mL) in serum-free MEM for 24 hours at 37 °C, filtered using a 0.2 μm filter, and used immediately. Care was taken not to vortex LDL to avoid aggregation of particles.
Cells were plated on 6-well plates (1 × 10^5 cells per well) or for 96-well plates (1 × 10^4 cells per well) in MEM with 10% FBS, 100 I.U./ml penicillin, 100 µg/ml streptomycin, 2mM L-glutamine, and 1X MEM non-essential amino acids. After 24 hours, media was removed and cells were incubated with MEM containing 10% lipoprotein-depleted serum (LPDS) (AAJ65182AMG, Fisher Scientific) for an additional 24 hours. […] Cells were washed 3 times in PBS, incubated with scintillation fluid overnight, and counts per minute (cpm) were determined using a scintillation counter MicroBeta[2] Microplate counter 2450.

[3] = test system: residual DTG binding site; experiment: Saturation binding on TMEM97 KO HeLa cell membranes; details: for binding to TMEM97 KO HeLa cells: TMEM97 KO versus control, all three guide RNA sequences; for Kd: TMEM97 KO/Cas9 HeLa cell membranes, saturation binding, N.B. = no binding
Description: (§1) For the cell membrane preparation for receptor binding, the cell pellets were taken out from the freezer, rinsed with 10 mL ice-cold PBS solution, and homogenized by using Wheaton overhead stirrer (120 Vac Overhead Stirrer, Millville, NJ, USA) at the speed of 2 for 30 sec. Then the cell solution was transferred to a 50 mL conical tube and centrifuged for 20 min at 31,000 × g, 4 °C. After centrifugation, the supernatant was discarded and the pellets were resuspended in 1 mL ice-cold PBS solution and stored at −80 °C freezer.
(§2) After incubation, the bound ligands were collected with a M-24 Brandel filtration system (Brandel, Gaithersburg, MD, USA) on the glass fiber papers (Whatman grade 934-AH, GE Healthcare Bio-Sciences, Pittsburgh, PA), and counted with a MicroBeta[2] Microplate counter 2450 or Wizard2 Automatic Gamma Counter 2470. All the Kd and Bmax values were calculated from a nonlinear regression method with Prism, and the protein concentrations were determined by the method of Lowry et al.[4] with BSA as a standard.

[4] = test system: residual DTG binding site; experiment: Saturation binding on TMEM97/PGRMC1 double KO HeLa cell membranes; details: Double KO/Cas9 HeLa cell membranes, N.B. = no binding
Description: as §1, §2

[5] = biological target: T1, σ2R; experiment: Saturation binding on control (Scramble/Cas9) HeLa cell membranes
Description: as §1, §2

[6] = biological target: T1, σ2R; experiment: Saturation binding on PGRMC1 KO HeLa cell membranes; details: PGRMC1 KO/Cas9 HeLa cell membranes
Description: as §1, §2

[7] = σ2R, ligands previously described, read-out: Kd
[8] = control (Cas9) HeLa cell membranes, Supplementary Figure 2, duplicates, n=3

T1 sequence (Q5BJF2 whole entry): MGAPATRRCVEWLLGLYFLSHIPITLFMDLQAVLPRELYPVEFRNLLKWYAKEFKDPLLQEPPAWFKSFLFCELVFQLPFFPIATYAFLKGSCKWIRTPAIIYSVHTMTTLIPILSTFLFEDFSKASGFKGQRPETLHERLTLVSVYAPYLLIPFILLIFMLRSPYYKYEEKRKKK

For `Cc1ccc2c(c1)[C@H]1CN(C)CC[C@H]1N2C(=O)CSc1nnnn1-c1ccc(Cl)cc1` [AG-205], the Kd ([1]; against σ2R, read-out: Kd against σ2R) is listed as ~1000 nM and the Ki ([1]; displacing DTG, no unit and reference not given) is listed as ~1260 nM.

For `COc1cc2c(cc1OC)CN(CCCCNC(=O)c1cc(C)ccc1OC)CC2` [RHM-1], the Kd [1, 7] is given as ~0.66 nM.

In the case of `COc1cc2c(cc1OC)CN(CCCCNC(=O)c1cc(I)cc(OC)c1OC)CC2` [RHM-4, N-(4-(6,7-dimethoxy-3,4-dihydroisoquinolin-2(1H)-yl)butyl)-2,3-dimethoxy-5-iodo-benzamide], the Kd [1, 7] is given as ~0.2 nM and the “effect on uptake of LDL labeled with [3H]cholesterol” value [2] is given as “blocking the uptake of LDL”.

For `COc1ccc(C)cc1NC(=O)OC1CC2CCCC(C1)N2CCCCCCCCCCN` (stereo not drawn) [SW43], the Kd [1, 7] is given as ~12 nM.

In the case of `Cc1ccccc1N=C(N)Nc1ccccc1C` [[^3H]DTG], the “binding to TMEM97 KO HeLa cells” value [3] is reported as “large, but incomplete, reduction”, the Kd ([3]; read-out: Kd) is reported as 302 ± 80.2 nM and the Kd ([4]; read-out: Kd) is reported as 403 ± 110 nM.

For `COc1cc2c(cc1OC)CN(CCCCNC(=O)c1cc(I)cc(OC)c1OC)CC2` [[^125I]RHM-4, [^125I]N-(4-(6,7-dimethoxy-3,4-dihydroisoquinolin-2(1 H)-yl)butyl)-2,3-dimethoxy-5-iodo-benzamide], the Kd ([5]; Scramble/Cas9 control HeLa cell membranes, saturation binding, 1 μM (+)-pentazocine to mask σ1R for [3H]DTG) was 0.88 ± 0.04 nM, the Kd [5, 8] was 1.1 ± 0.2 nM and the Kd ([6]; saturation binding) was 2.66 ± 0.12 nM.

In the case of `COc1cc2c(cc1OC)CN(CCCCNC(=O)c1cc([125I])cc(OC)c1OC)CC2` [[^125I]RHM-4, [^125I]N-(4-(6,7-dimethoxy-3,4-dihydroisoquinolin-2(1 H)-yl)butyl)-2,3-dimethoxy-5-iodo-benzamide], the “binding to TMEM97 KO HeLa cells” value [3] is reported as “complete reduction in binding”, the Kd [3] is reported as “N.B” and the Bmax ([5]; Scramble/Cas9 control HeLa cell membranes) is reported as 2545 ± 37 fmol/mg. For the same compound, the Bmax [5, 8] was 2234.0 fmol/mg, the Bmax [6] was 2475 ± 51 fmol/mg and the Kd [4] was “N.B”.
